What follows are compounds tested on NL-RLuc virus (assay: Inhibition of HIV replication (NL-RLuc luciferase reporter virus in MT-2 cells)). Details: Human immunodeficiency virus 1, MT2, 120 h, read-out: Activity.
Assay type: cell-based
How it was run: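 MT-2 cells were infected with NL4-3-derived virus carrying Renilla luciferase in place of part of nef, in RPMI/10% FBS, with serial compound dilutions. Luciferase read after 5 days of multicycle replication. EC50 from the median effect equation, at least 2 experiments.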

| SMILES | EC50 [µM] |
| --- | --- |
| Cc1nc(CN2CCC(O)CC2)c(-c2ccc(OCCc3ccc(F)cc3)cc2)c(N2CCC(C)(C)CC2)c1[C@H](OC(C)(C)C)C(=O)O [Example 87, (S)-2-(tert-Butoxy)-2-(4-(4,4-dimethylpiperidin-1-yl)-5-(4-(4-fluorophenethoxy)phenyl)-6-((4-hydroxypiperidin-1-yl)methyl)-2-methylpyridin-3-yl)acetic acid] | < 0.1 |
| Cc1nc(CN2CCC(C)(C)CC2)c(-c2ccc(OCCc3ccc(F)cc3)cc2)c(N2CCC(C)(C)CC2)c1[C@H](OC(C)(C)C)C(=O)O [Example 88, (S)-2-(tert-Butoxy)-2-(4-(4,4-dimethylpiperidin-1-yl)-6-((4,4-dimethylpiperidin-1-yl)methyl)-5-(4-(4-fluorophenethoxy)phenyl)-2-methylpyridin-3-yl)acetic acid] | < 0.1 |
| Cc1nc(CN2CCCc3ccccc32)c(-c2ccc(OCCc3ccc(F)cc3)cc2)c(N2CCC(C)(C)CC2)c1[C@H](OC(C)(C)C)C(=O)O [Example 89, (S)-2-(tert-Butoxy)-2-(6-((3,4-dihydroquinolin-1(2H)-yl)methyl)-4-(4,4-dimethylpiperidin-1-yl)-5-(4-(4-fluorophenethoxy)phenyl)-2-methylpyridin-3-yl)acetic acid] | < 0.1 |
| Cc1nc(CN2CCC(F)CC2)c(-c2ccc(OCCc3ccc(F)cc3)cc2)c(N2CCC(C)(C)CC2)c1[C@H](OC(C)(C)C)C(=O)O [Example 90, (S)-2-(tert-Butoxy)-2-(4-(4,4-dimethylpiperidin-1-yl)-5-(4-(4-fluorophenethoxy)phenyl)-6-((4-fluoropiperidin-1-yl)methyl)-2-methylpyridin-3-yl)acetic acid] | < 0.1 |
| COc1ccccc1NCc1nc(C)c([C@H](OC(C)(C)C)C(=O)O)c(N2CCC(C)(C)CC2)c1-c1ccc(OCCc2ccc(F)cc2)cc1 [Example 91, (S)-2-(tert-Butoxy)-2-(4-(4,4-dimethylpiperidin-1-yl)-5-(4-(4-fluorophenethoxy)phenyl)-6-(((2-methoxyphenyl)amino)methyl)-2-methylpyridin-3-yl)acetic acid] | < 0.1 |
| Cc1nc(CN2CC(C)OC(C)C2)c(-c2ccc(OCCc3ccc(F)cc3)cc2)c(N2CCC(C)(C)CC2)c1[C@H](OC(C)(C)C)C(=O)O (stereo partly drawn) [Example 92, (2S)-2-(tert-Butoxy)-2-(6-((2,6-dimethylmorpholino)methyl)-4-(4,4-dimethylpiperidin-1-yl)-5-(4-(4-fluorophenethoxy)phenyl)-2-methylpyridin-3-yl)acetic acid] | < 0.1 |
| COCCN(CCOC)Cc1nc(C)c([C@H](OC(C)(C)C)C(=O)O)c(N2CCC(C)(C)CC2)c1-c1ccc(OCCc2ccc(F)cc2)cc1 [Example 93, (S)-2-(6-((Bis(2-methoxyethyl)amino)methyl)-4-(4,4-dimethylpiperidin-1-yl)-5-(4-(4-fluorophenethoxy)phenyl)-2-methylpyridin-3-yl)-2-(tert-butoxy)acetic acid] | < 0.1 |
| Cc1nc(CN2CCN(C)CC2)c(-c2ccc(OCCc3ccc(F)cc3)cc2)c(N2CCC(C)(C)CC2)c1[C@H](OC(C)(C)C)C(=O)O [Example 94, (S)-2-(tert-Butoxy)-2-(4-(4,4-dimethylpiperidin-1-yl)-5-(4-(4-fluorophenethoxy)phenyl)-2-methyl-6-((4-methylpiperazin-1-yl)methyl)pyridin-3-yl)acetic acid] | < 0.1 |
| Cc1nc(CNCc2ccccn2)c(-c2ccc(OCCc3ccc(F)cc3)cc2)c(N2CCC(C)(C)CC2)c1[C@H](OC(C)(C)C)C(=O)O [Example 95, (S)-2-(tert-Butoxy)-2-(4-(4,4-dimethylpiperidin-1-yl)-5-(4-(4-fluorophenethoxy)phenyl)-2-methyl-6-(((pyridin-2-ylmethyl)amino)methyl)pyridin-3-yl)acetic acid] | < 0.1 |
| Cc1nc(CN2[C@@H]3CC[C@H]2CN(C)C3)c(-c2ccc(OCCc3ccc(F)cc3)cc2)c(N2CCC(C)(C)CC2)c1[C@H](OC(C)(C)C)C(=O)O [Example 96, (S)-2-(tert-butoxy)-2-(4-(4,4-dimethylpiperidin-1-yl)-5-(4-(4-fluorophenethoxy)phenyl)-2-methyl-6-(((1R,5S)-3-methyl-3,8-diazabicyclo[3.2.1]octan-8-yl)methyl)pyridin-3-yl)acetic acid] | < 0.1 |
| Cc1nc(CN(C)Cc2ccccc2)c(-c2ccc(OCCc3ccc(F)cc3)cc2)c(N2CCC(C)(C)CC2)c1[C@H](OC(C)(C)C)C(=O)O [Example 97, (S)-2-(6-((Benzyl(methyl)amino)methyl)-4-(4,4-dimethylpiperidin-1-yl)-5-(4-(4-fluorophenethoxy)phenyl)-2-methylpyridin-3-yl)-2-(tert-butoxy)acetic acid] | < 0.1 |
| Cc1nc(CN2C3CC2CN(Cc2ccccc2)C3)c(-c2ccc(OCCc3ccc(F)cc3)cc2)c(N2CCC(C)(C)CC2)c1[C@H](OC(C)(C)C)C(=O)O [Example 98, (2S)-2-(6-((3-Benzyl-3,6-diazabicyclo[3.1.1]heptan-6-yl)methyl)-4-(4,4-dimethylpiperidin-1-yl)-5-(4-(4-fluorophenethoxy)phenyl)-2-methylpyridin-3-yl)-2-(tert-butoxy)acetic acid] | < 0.1 |
| Cc1nc(CNCC2CCCCC2)c(-c2ccc(OCCc3ccc(F)cc3)cc2)c(N2CCC(C)(C)CC2)c1[C@H](OC(C)(C)C)C(=O)O [Example 99, (S)-2-(tert-Butoxy)-2-(6-(((cyclohexylmethyl)amino)methyl)-4-(4,4-dimethylpiperidin-1-yl)-5-(4-(4-fluorophenethoxy)phenyl)-2-methylpyridin-3-yl)acetic acid] | < 0.1 |
| Cc1nc(CN(C)CC2CCCCC2)c(-c2ccc(OCCc3ccc(F)cc3)cc2)c(N2CCC(C)(C)CC2)c1[C@H](OC(C)(C)C)C(=O)O [Example 100, (S)-2-(tert-Butoxy)-2-(6-(((cyclohexylmethyl)(methyl)amino)methyl)-4-(4,4-dimethylpiperidin-1-yl)-5-(4-(4-fluorophenethoxy)phenyl)-2-methylpyridin-3-yl)acetic acid] | < 0.1 |
| CC(=O)N(C)Cc1nc(C)c([C@H](OC(C)(C)C)C(=O)O)c(N2CCC(C)(C)CC2)c1-c1ccc(OCCc2ccc(F)cc2)cc1 [Example 101, (S)-2-(tert-Butoxy)-2-(4-(4,4-dimethylpiperidin-1-yl)-5-(4-(4-fluorophenethoxy)phenyl)-2-methyl-6-((N-methylacetamido)methyl)pyridin-3-yl)acetic acid] | < 0.1 |
| Cc1nc(CN(C)C(=O)C(=O)N(C)C)c(-c2ccc(OCCc3ccc(F)cc3)cc2)c(N2CCC(C)(C)CC2)c1[C@H](OC(C)(C)C)C(=O)O [Example 102, (S)-2-(tert-Butoxy)-2-(6-((2-(dimethylamino)-N-methyl-2-oxoacetamido)methyl)-4-(4,4-dimethylpiperidin-1-yl)-5-(4-(4-fluorophenethoxy)phenyl)-2-methylpyridin-3-yl)acetic acid] | < 0.1 |
| Cc1nnc(C(=O)N(C)Cc2nc(C)c([C@H](OC(C)(C)C)C(=O)O)c(N3CCC(C)(C)CC3)c2-c2ccc(OCCc3ccc(F)cc3)cc2)o1 [Example 103, (S)-2-(tert-butoxy)-2-(6-((N,5-dimethyl-1,3,4-oxadiazole-2-carboxamido)methyl)-4-(4,4-dimethylpiperidin-1-yl)-5-(4-(4-fluorophenethoxy)phenyl)-2-methylpyridin-3-yl)acetic acid] | < 0.1 |
| Cc1nnc(C(=O)NCc2nc(C)c([C@H](OC(C)(C)C)C(=O)O)c(N3CCC(C)(C)CC3)c2-c2ccc(OCCc3ccc(F)cc3)cc2)o1 [Example 104, (S)-2-(tert-Butoxy)-2-(4-(4,4-dimethylpiperidin-1-yl)-5-(4-(4-fluorophenethoxy)phenyl)-2-methyl-6-((5-methyl-1,3,4-oxadiazole-2-carboxamido)methyl)pyridin-3-yl)acetic acid] | < 0.1 |
| Cc1nc(CNC(=O)C(=O)N(C)C)c(-c2ccc(OCCc3ccc(F)cc3)cc2)c(N2CCC(C)(C)CC2)c1[C@H](OC(C)(C)C)C(=O)O [Example 105, (S)-2-(tert-Butoxy)-2-(6-((2-(dimethylamino)-2-oxoacetamido)methyl)-4-(4,4-dimethylpiperidin-1-yl)-5-(4-(4-fluorophenethoxy)phenyl)-2-methylpyridin-3-yl)acetic acid] | < 0.1 |
| CC(=O)NCc1nc(C)c([C@H](OC(C)(C)C)C(=O)O)c(N2CCC(C)(C)CC2)c1-c1ccc(OCCc2ccc(F)cc2)cc1 [Example 106, (S)-2-(6-(Acetamidomethyl)-4-(4,4-dimethylpiperidin-1-yl)-5-(4-(4-fluorophenethoxy)phenyl)-2-methylpyridin-3-yl)-2-(tert-butoxy)acetic acid] | < 0.1 |
| Cc1nc(CNC=O)c(-c2ccc(OCCc3ccc(F)cc3)cc2)c(N2CCC(C)(C)CC2)c1[C@H](OC(C)(C)C)C(=O)O [Example 107, (S)-2-(tert-Butoxy)-2-(4-(4,4-dimethylpiperidin-1-yl)-5-(4-(4-fluorophenethoxy)phenyl)-6-(formamidomethyl)-2-methylpyridin-3-yl)acetic acid] | < 0.1 |
| CCOCCOCc1nc(C)c(-c2ccc(OCCc3ccc(F)cc3)cc2)c(N2CCC(C)(C)CC2)c1[C@H](OC(C)(C)C)C(=O)O [Example 108, (S)-2-(tert-Butoxy)-2-(4-(4,4-dimethylpiperidin-1-yl)-2-((2-ethoxyethoxy)methyl)-5-(4-(4-fluorophenethoxy)phenyl)-6-methylpyridin-3-yl)acetic acid] | < 0.1 |
| Cc1nc(COCC2COC2)c([C@H](OC(C)(C)C)C(=O)O)c(N2CCC(C)(C)CC2)c1-c1ccc(OCCc2ccc(F)cc2)cc1 [Example 109, (S)-2-(tert-Butoxy)-2-(4-(4,4-dimethylpiperidin-1-yl)-5-(4-(4-fluorophenethoxy)phenyl)-6-methyl-2-((oxetan-3-ylmethoxy)methyl)pyridin-3-yl)acetic acid] | < 0.1 |

Same assay, conditions: Human immunodeficiency virus 1, MT2, 120 h, read-out: EC50 μM

| SMILES | EC50 [µM] |
| --- | --- |
| COc1ccccc1NCc1nc(C)c([C@H](OC(C)(C)C)C(=O)O)c(N2CCC(C)(C)CC2)c1-c1ccc(OCCc2ccc(F)cc2)cc1 [Example 91, (S)-2-(tert-Butoxy)-2-(4-(4,4-dimethylpiperidin-1-yl)-5-(4-(4-fluorophenethoxy)phenyl)-6-(((2-methoxyphenyl)amino)methyl)-2-methylpyridin-3-yl)acetic acid] | 0.018 |
| Cc1nc(CN(C)CC2CCCCC2)c(-c2ccc(OCCc3ccc(F)cc3)cc2)c(N2CCC(C)(C)CC2)c1[C@H](OC(C)(C)C)C(=O)O [Example 100, (S)-2-(tert-Butoxy)-2-(6-(((cyclohexylmethyl)(methyl)amino)methyl)-4-(4,4-dimethylpiperidin-1-yl)-5-(4-(4-fluorophenethoxy)phenyl)-2-methylpyridin-3-yl)acetic acid] | 0.003 |
| Cc1nc(COCC2COC2)c([C@H](OC(C)(C)C)C(=O)O)c(N2CCC(C)(C)CC2)c1-c1ccc(OCCc2ccc(F)cc2)cc1 [Example 109, (S)-2-(tert-Butoxy)-2-(4-(4,4-dimethylpiperidin-1-yl)-5-(4-(4-fluorophenethoxy)phenyl)-6-methyl-2-((oxetan-3-ylmethoxy)methyl)pyridin-3-yl)acetic acid] | 0.005 |

— patent US10351546B2, “Pyridin-3-yl acetic acid derivatives as inhibitors of human immunodeficiency virus replication” (priority 2015, dated 2019)
